Assay results reported in patent US20190290675A1, “GLYCAN POLYMERS AND RELATED METHODS THEREOF” (priority 2016, published 2019).

Key:
Assay in all cases: single strain growth assay, enzymatically synthesized glycans and parent sugars
Type in all cases: cell-based
Conditions in all cases: 0.5% w/v, 37° C., 18-48 hours, anaerobic; OD600 blanked against no glycan or sugar
[1] = tested on: Bacteroides thetaiotaomicron ATCC 29741 “BTH.8”
Protocol: (§1) An in vitro assay was performed to assess the ability of various bacterial strains, including commensals and pathogens of the gastrointestinal tract, to utilize enzymatically synthesized glycans (i.e., glycan polymers) and the sugars from which they were derived as growth substrates. The assay was designed to determine if enzymatically synthesized glycans differ from the sugars from which they are derived in how well they support growth of potentially beneficial or harmful bacterial members of the human microbiome. Bacterial strains were handled at all steps in an anaerobic chamber (AS-580, Anaerobe Systems) featuring a palladium catalyst. The chamber was initially made anaerobic by purging with an anaerobic gas mixture of 5% hydrogen, 5% carbon dioxide and 90% nitrogen and subsequently maintained in an anaerobic state using this same anaerobic gas mixture. Anaerobicity of the chamber was confirmed daily using Oxoid anaerobic indicator strips that change color in the presence of oxygen. All culture media, assay plates, other reagents and plastic consumables were pre-reduced in the anaerobic chamber for at least 24-48 hours prior to contact with bacteria. […] Bacterial isolates were obtained from the American Type Culture Collection (ATCC) and Leibniz Institute DSMZ-German Institute of Microorganisms and Cell Cultures (DSMZ). […] Inocula were prepared by determining the optical density of each culture at 600 nM (OD600) in a Costar 3370 polystyrene 96-well flat-bottom assay plate using a Biotek Synergy 2 plate reader with Gen5 2.0 All-In-One Microplate Reader Software according to manufacturer's protocol, and diluting the cells to OD600 0.01 final in defined and semi-defined media that were prepared without sugars. […]

[2] = tested on: Blautia hansenii ATCC 27752 “BHA.20”
Protocol: An in vitro assay was performed to assess the ability of various bacterial strains, including commensals and pathogens of the gastrointestinal tract, to utilize enzymatically synthesized glycans (i.e., glycan polymers) and the sugars from which they were derived as growth substrates. The assay was designed to determine if enzymatically synthesized glycans differ from the sugars from which they are derived in how well they support growth of potentially beneficial or harmful bacterial members of the human microbiome. Bacterial strains were handled at all steps in an anaerobic chamber (AS-580, Anaerobe Systems) featuring a palladium catalyst. The chamber was initially made anaerobic by purging with an anaerobic gas mixture of 5% hydrogen, 5% carbon dioxide and 90% nitrogen and subsequently maintained in an anaerobic state using this same anaerobic gas mixture. Anaerobicity of the chamber was confirmed daily using Oxoid anaerobic indicator strips that change color in the presence of oxygen. All culture media, assay plates, other reagents and plastic consumables were pre-reduced in the anaerobic chamber for at least 24-48 hours prior to contact with bacteria. […] Inocula were prepared by determining the optical density of each culture at 600 nM (OD600) in a Costar 3370 polystyrene 96-well flat-bottom assay plate using a Biotek Synergy 2 plate reader with Gen5 2.0 All-In-One Microplate Reader Software according to manufacturer's protocol, and diluting the cells to OD600 0.01 final in defined and semi-defined media that were prepared without sugars. […]

[3] = tested on: Dorea formicigenerans ATCC 27755 “DFO.36”
Protocol: as §1

[4] = tested on: Parabacteroides distasonis ATCC 8503 “PDI.6”
Protocol: as §1

[5] = tested on: Dorea longicatena DSM 13814 “DLO.76”
Protocol: as §1

[6] = tested on: Clostridium scindens ATCC 35704 “CSC.32”
Protocol: as §1

## OC[C@H]1O[C@@H](O[C@@H]2[C@@H](CO)OC(O)(CO)[C@H]2O)[C@H](O)[C@@H](O)[C@H]1O (mixture of isomers) [lactulose]
[1]
  Growth, BTH.8: + (0.1-0.3)
[2]
  Growth, BHA.20: +++ (>0.7)
[3]
  Growth, DFO.36: − (<0.1)
[4]
  Growth, PDI.6: ++ (0.3-0.7)
[5]
  Growth, DLO.76: − (<0.1)
[6]
  Growth, CSC.32: − (<0.1)

## OC[C@H]1O[C@H](OC[C@H]2O[C@H](O[C@]3(CO)O[C@H](CO)[C@@H](O)[C@@H]3O)[C@H](O)[C@@H](O)[C@@H]2O)[C@H](O)[C@@H](O)[C@H]1O [raffinose]
[1]
  Growth, BTH.8: − (<0.1)
[2]
  Growth, BHA.20: ++ (0.3-0.7)
[3]
  Growth, DFO.36: − (<0.1)
[4]
  Growth, PDI.6: +++ (>0.7)
[5]
  Growth, DLO.76: − (<0.1)
[6]
  Growth, CSC.32: − (<0.1)

## OC[C@H]1O[C@@](CO)(O[C@H]2O[C@H](CO)[C@@H](O)[C@H](O)[C@H]2O)[C@@H](O)[C@@H]1O [sucrose]
[1]
  Growth, BTH.8: +++ (>0.7)
[2]
  Growth, BHA.20: − (<0.1)
[3]
  Growth, DFO.36: − (<0.1)
[4]
  Growth, PDI.6: ++ (0.3-0.7)
[5]
  Growth, DLO.76: +++ (>0.7)
[6]
  Growth, CSC.32: − (<0.1)
